Tests used:
[1] = Measurement of absorbance and fluorescence of synthesized compound in ethanol; format: physicochemical; conditions: 10 μM in ethanol; for λem: Maximum emission wavelength / λex: Maximum excitation wavelength: average of three measurements; for Stokes shift: difference between excitation and emission
Method: In order to investigate the optical properties of the newly synthesized compound in the present invention, the absorbance was measured using a V-730 UV-visible spectrophotometer manufactured by JASCO, and fluorescence was measured using a FlexStation 3 multi-mode microplate reader manufactured by Molecular Devices. Absorbance and fluorescence were measured three times at a concentration of 10 μM in ethanol, and the average thereof is shown in Table 1 below. At this time, T807 (AV-1451) as a Tau positron-emission-tomography (PET) tracer and Thioflavin S, which are commercially available to detect tau production in vivo, were used as a control group.

[2] = target: T1, tau aggregates (Tau-K18 protein) (Homo sapiens, UniProt P10636); assay: In vitro binding assay (fluorescence labeling ability) to tau aggregates; conditions: for SIaβ: selectivity index = fluorescence intensity of probe bound to Tau aggregate / bound to Aβ aggregate / SItaumono: selectivity index, tau aggregate versus tau monomer / FItau: fold increase = fluorescence intensity of probe bound to tau aggregate / probe (free): compound 10 μM; for FItau: fold increase = fluorescence intensity of probe bound to tau aggregate / probe (free): PBS, 30 min incubation; for selectivity for tau aggregates over amyloid aggregates: in vitro screening as fluorescent probes
T1 construct: aggregation of Tau-K18 protein (0.5 mg/ml in PBS) purified and isolated from E. coli; made in house; host or cells: E. coli
T1 sequence (P10636 561-685 limits assumed): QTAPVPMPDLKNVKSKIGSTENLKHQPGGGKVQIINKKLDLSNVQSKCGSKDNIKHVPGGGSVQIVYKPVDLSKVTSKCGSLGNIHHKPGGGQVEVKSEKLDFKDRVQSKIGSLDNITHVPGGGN
Method: (§1) Experimental Example 2-1: Tau and amyloid beta aggregation induction For amyloid aggregation induction, the synthesized Abeta40 (Amyloid Beta 40) peptide was dissolved in PBS at a concentration of 0.5 mg/ml to induce aggregation for 7 days at 37° C. and 200 rpm with shaking. To induce aggregation of tau proteins, aggregation of Tau-K18 protein (0.5 mg/ml in PBS) purified and isolated from E. coli with heparin (0.1 mg/ml) and DTT (100 μM) was induced at 37° C. and 200 rpm for 7 days under shaking conditions. […] At this time, thioflavin S (Th S), which is known to bind to beta-sheet structures such as tau and amyloid aggregates, was used as a control group (Ex: 430 nm, Em: 480-610 nm). Specifically, in order to determine the labeling ability of newly synthesized compounds to tau aggregate proteins, a 25 μl dilution of a 10 μM labeling substance in PBS and 25 id of a 0.125 mg/ml tau or amyloid pre-aggregate or aggregate diluted in PBS were each incubated for 30 minutes, and then a fluorescence spectrum reaction was measured using a spectrophotometer. Selectivity analysis for tau aggregates and amyloid beta aggregates of the novel synthetic compounds of the present invention was performed as described above, and the resulting in vitro fluorescence changes are summarized in Table 2 and FIG. 1 below.

[3] = target: T2, amyloid beta aggregates (Abeta40) (Homo sapiens, UniProt P05067); assay: In vitro binding assay (fluorescence labeling ability) to amyloid beta aggregates; conditions: compound 10 μM, PBS, 30 min incubation
T2 construct: the synthesized Abeta40 (Amyloid Beta 40) peptide was dissolved in PBS; host or cells: synthetic peptide
T2 sequence (P05067 672-711 limits assumed): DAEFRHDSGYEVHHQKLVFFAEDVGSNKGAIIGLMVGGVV
Method: as §1

[4] = target: bovine serum albumin (BSA) (Bos taurus, UniProt P02769); assay: Measurement of non-specific binding using BSA; conditions: for FIBSA: fold increase = fluorescence intensity of probe bound to BSA / probe (free): compound 10 μM, 0.25 mg/ml BSA, 30 min incubation
Chain of bovine serum albumin (BSA) (P02769 25-607): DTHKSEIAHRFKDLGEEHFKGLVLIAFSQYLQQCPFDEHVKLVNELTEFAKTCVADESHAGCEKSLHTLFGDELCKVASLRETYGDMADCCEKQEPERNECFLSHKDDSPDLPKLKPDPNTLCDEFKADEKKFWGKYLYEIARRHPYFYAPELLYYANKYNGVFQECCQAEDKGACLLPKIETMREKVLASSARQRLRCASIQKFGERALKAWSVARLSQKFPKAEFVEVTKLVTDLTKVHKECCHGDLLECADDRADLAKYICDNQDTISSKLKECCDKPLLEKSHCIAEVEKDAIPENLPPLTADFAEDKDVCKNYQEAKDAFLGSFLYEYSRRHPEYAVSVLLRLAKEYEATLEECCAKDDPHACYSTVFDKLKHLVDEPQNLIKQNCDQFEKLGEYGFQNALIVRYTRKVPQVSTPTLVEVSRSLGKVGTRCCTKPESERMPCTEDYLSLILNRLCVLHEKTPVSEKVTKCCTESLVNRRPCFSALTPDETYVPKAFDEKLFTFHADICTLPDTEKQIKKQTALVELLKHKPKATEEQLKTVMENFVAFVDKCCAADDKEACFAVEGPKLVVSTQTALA
Method: In order to exclude non-specific binding of the compound to serum, reactivity between the compound and bovine serum albumin (BSA) was further tested. 25 μl of a 10 μM compound was incubated along with 25 μl of 0.25 mg/ml BSA for 30 minutes, and then the fluorescence spectrum reaction was measured using a spectrophotometer. The BSA response was conducted to identify non-selective binding to other proteins in the blood when applied to patients as an imaging agent.

Compound	λem: Maximum emission wavelength [1] [nm]	λex: Maximum excitation wavelength [1] [nm]	Stokes shift [1] [nm]	SIaβ: selectivity index = fluorescence intensity of probe bound to Tau aggregate / bound to Aβ aggregate [2]	SItaumono: selectivity index, tau aggregate versus tau monomer [2]	FItau: fold increase = fluorescence intensity of probe bound to tau aggregate / probe (free) [2]	FIAβ: fold increase = fluorescence intensity of probe bound to Aβ aggregate / probe (free) [3]	FIBSA: fold increase = fluorescence intensity of probe bound to BSA / probe (free) [4]	selectivity for tau aggregates over amyloid aggregates [2] [times]	reactivity to BSA ([4]; in words)
COc1ccc2nc(/C=C/C=C/c3cccc(Cl)c3)ccc2c1 [Compound 15f, 6-methoxy-2-((1E,3E)-4-(3-chlorophenyl)buta-1,3-dien-1-yl)quinolone]	415	360	55	1.2	4.4	3.91	3.27	1.75	–	–
COc1ccc2nc(/C=C/C=C/c3cccc([N+](=O)[O-])c3)ccc2c1 [Compound 15g, 6-methoxy-2-((1E,3E)-4-(3-nitrophenyl)buta-1,3-dien-1-yl)quinolone]	452	361	91	5.8	3.7	3.42	0.58	1.33	5.8	–
COc1ccc2nc(/C=C/C=C/c3ccc(F)cc3F)ccc2c1 [Compound 15h, 6-methoxy-2-((1E,3E)-4-(2.4-difluorophenyl)buta-1,3-dien-1-yl)quinolone]	415	360	55	1.5	2.8	2.35	1.56	0.70	–	–
CNc1ccc(/C=C/C=C/C(=O)c2ccc3cc(OC)ccc3n2)cc1 [Compound 16b, (2E,4E)-1-(6-methoxyquinolin-2-yl)-5-(4-(methylamino)phenyl)penta-2,4-dien-1-one]	714	475	239	1.0	2.1	9.22	9.45	56.71	–	–
COc1ccc2nc(C(=O)/C=C/C=C/c3ccc(N(C)C)cc3)ccc2c1 [Compound 16c, (2E,4E)-5-(4-(dimethylamino)phenyl)-1-(6-methoxyquinolin-2-yl)penta-2,4-dien-1-one]	678	450	228	1.2	1.7	1.71	1.43	1.29	–	–
COc1ccc2nc(C(=O)/C=C/C=C/c3ccc(N(C)C)nc3)ccc2c1 [Compound 16d, (2E,4E)-5-(6-(dimethylamino)pyridin-3-yl)-1-(6-methoxyquinolin-2-yl)penta-2,4-dien-1-one]	637	425	212	3.5	3.9	3.82	1.10	1.26	3.5	–
COc1ccc2nc(C(=O)/C=C/C=C/c3ccc(N(C)CCO)cc3)ccc2c1 [Compound 16e]	658	436	222	2.5	3.0	3.90	1.55	1.59	–	–
Thioflavin S [reference compound]	451	347	104	0.8	4.3	15.32	19.95	7.133	–	high reactivity

Reference: US12050224B2, “Compounds useful as near-infrared fluorescent probes selectively binding to tau aggregates and method of preparing the same” (KOREA INSTITUTE OF SCIENCE AND TECHNOLOGY, priority 2020, dated 2024)
